Data as given in patent publication US20250241905A1, “3-BETA-HSD1 INHIBITORS AND COMPOSITIONS AND USES THEREOF” (The Cleveland Clinic Foundation, priority 2022, published 2025).
Where two headings read alike, the source gives them in different places.

Assays:
[1] = test system: C4-2 prostate cancer cells; test: Cellular viability of C4-2 cells (CellTiter-Glo); assay type: cell-based, human; conditions: 6 days, 1% FBS + DHEA, read-out: GI50 (μM), growth inhibition
Procedure: C4-2 cells were routinely maintained in RPMI+2 mM L-Glutamine+1× Anti-Anti+10% FBS. C4-2 cells were harvested by trypsinization for 90 seconds in 0.25% Trypsin-EDTA, counted with a Vi-Cell Blu cell counter (Beckman Coulter), and diluted into Complete Viability Media (RPMI+2 mM L-Glutamine+1× Anti-Anti+1% FBS+[…]) at a density of 10,000 cells/mL. 12-point, two-fold dilution series of test compounds (starting at 10 mM) were prepared in 100% DMSO, and then 450 nL of the dilution series were stamped in triplicate into 384-well, white, opaque bottom, TC-treated CulturPlate™ (Perkin Elmer 6007680) using acoustic dispensing (Labcyte Echo 550). 50 μL/well of the diluted C4-2 cells (500 cells/well) were added directly to the plates containing dispensed compounds, yielding a final [DMSO] of 0.9% and a final top [compound] of 90 μM. The plates were centrifuged for 1 min at 500×g and then incubated for 6 days at 37° C., 5% CO2. Cell density at the end of the assay was measured using 35 μL/well CellTiter-Glo® (Promega) per the manufacturer's recommendations, and total luminescence was measured on a Cytation 5 plate reader. Raw luminescence values were normalized from 0 (empty Viability Media+0.9% DMSO, no cells) to 100 (Cells+0.9% DMSO, maximum proliferation), triplicate values were averaged, and dose-response curves were fit and G150 values extracted using variable slope nonlinear regression in GraphPad Prism.

C4-2 flank tumor = test: CRPC C4-2 flank tumor model in mice; assay type: in vivo; conditions: orchiectomized NSG male mice with DHEA pellets, 100 mg/kg in water with 20% Captisol, oral gavage twice daily
Procedure: The mouse study was performed under a protocol approved by the Institutional Animal Care and Use Committee of the Cleveland Clinic Lerner Research Institute. All NOD scid gamma (NSG) male mice (6 to 8 weeks old) were purchased from the Jackson Laboratory. 10^7 C4-2 cells were injected subcutaneously into mice with matrigel (total injection volume 100 μL). Once tumors reached 100 mm^3 (length×width×height×0.52), mice were surgically orchiectomized and implanted with 5 mg 90-day sustained-release DHEA pellets (Innovative Research of America) to mimic human adrenal DHEA production in patients with CRPC, then the mice were arbitrarily (but not strictly randomized) assigned to vehicle (n=6), Compound 1 (n=6), or Compound 5 (n=6). The mice were given vehicle, Compound 1 (100 mg/kg in water with 20% Captisol), or Compound 5 (100 mg/kg in water with 20% Captisol) by oral gavage twice daily.

[2] = test system: Androstenedione synthesis in C4-2 prostate cancer cells; test: Cell line steroid metabolism: androstenedione synthesis inhibition (HPLC, [3H]-labeled androgens); assay type: cell-based; conditions: Homo sapiens, serum-free RPMI-1640, [3H]-labeled androgens 25 nM
Procedure: Cells were seeded and incubated in 12-well plates with 0.15 million cells/well in RPMI-1640 medium with 10% FBS for ˜24 h at 37° C. Culture medium was then replaced with serum-free RPMI-1640 and a mixture of radioactive ([3H]-labeled) and non-radioactive androgens (final concentration, 25 nM; ˜600,000 cpm/well; PerkinElmer, Waltham, MA) plus inhibitor compounds at specified concentrations was added. […]
High-performance liquid chromatography (HPLC) analysis was performed on a Waters 1525 HPLC system (Waters Corp., Milford, MA). Dried samples were reconstituted in 50% methanol and injected into the HPLC. Steroids were separated on a Luna 150×4.6 mm, 3.0 μm particle size C18 reverse-phase column (Phenomenex, Torrance, CA) with a methanol/water gradient at 50° C. Column effluent was mixed with Liquiscint scintillation cocktail (National Diagnostics, Atlanta, GA) and analyzed using a β-RAM model 4 in-line radioactivity detector (LabLogic, Brandon, FL).

human 3β-HSD1 = test: 3β-HSD1 inhibition, colorimetric NADH detection assay; assay type: biochemical; conditions: purified recombinant human 3β-HSD1, 50 μM DHEA, 2 mM NAD+, 1 hour, room temperature, duplicate 10-point CRC; read-out: IC50 (nM), in vitro NADH inhibition
From the text: Enzymatic turnover was quantified through NADH generation by purified, recombinant human 3β-HSD1 (expressed in Sf9 insect cells) in the presence of steroidal substrate trans-Dehydroandrosterone (DHEA) that was placed slightly above the experimentally determined Km and saturating amounts of co-factor Nicotinamide adenine dinucleotide (NAD^+). The sequence of recombinant human 3β-HSD1 used is […] […] […] […] […] […] […] (SEQ ID NO: 3). DHEA and NAD+ were enzymatically converted to androstenedione and NADH, respectively. Final NADH concentrations were spectroscopically quantified using a commercially available Amplite™ Colorimetric NADH Assay Kit which utilizes an NADH probe with an absorbance wavelength of 460 nm. Enzymatic assays with a final volume of 25 μL were ran in a 384-well, Greiner Bio-One UV-STAR® assay plate in 50 mM TRIS pH 8.0 assay buffer. […] Compound stocks at 10 mM in DMSO were serial diluted 5-fold in DMSO to generate an ECHO® compatible source plate. 125 nL of DMSO, Trilostane, or serial diluted compounds were then acoustically transferred into an empty UV-STAR® assay plate to give a final assay concentration of 0.5% v/v DMSO. The stamp volume and dilution scheme can be adjusted to accommodate compound potency. The assay can tolerate up to a 5% v/v DMSO final assay concentration. 15 μL of 1 μg purified 3β-HSD1 and 50 μM DHEA (final assay volume concentration) was dispensed per well into the stamped plate, centrifuged for 1 minute at 1000 RPM, covered, and allowed to incubate for 15 minutes at room temp. Enzymatic reactions were initiated upon the addition of 10 μL of NAD^+ diluted in assay buffer to give a final assay volume concentration of 2 mM. The assay plate was centrifuged for 1 minute at 1000 RPM, covered, and incubated at room temperature for 1 hour. 25 μL Amplite™ Colorimetric NADH Assay Kit detection solution (prepared as recommended) was added to all reaction wells, the plate centrifuged for 1 minute at 1000 RPM, covered, and incubated for 15 minutes. Final absorbance values (λ=460 nm) are spectroscopically determined on BioTek® Cytation5 or Synergy4 plate readers. […] From the background subtracted values, the non-inhibited enzyme signal (DMSO treated) was averaged from 32 control reactions. The percent inhibition value was calculated by: % inhibition=(1−((background subtracted inhibited reaction)/(background subtracted non-inhibited average)))*100. The resulting percent inhibition was then plotted in duplicate against corresponding concentration values. The resulting CRCs were fit with a four parameter, variable slope log (inhibitor) vs response equation where Y=bottomvalue+ (topvalue−bottomvalue)/(1+10^((log IC50−X)*Hillslope)) to determine the IC50 values for tested compounds.

human 3β-HSD1, sequence (P14060 2-373 limits assumed): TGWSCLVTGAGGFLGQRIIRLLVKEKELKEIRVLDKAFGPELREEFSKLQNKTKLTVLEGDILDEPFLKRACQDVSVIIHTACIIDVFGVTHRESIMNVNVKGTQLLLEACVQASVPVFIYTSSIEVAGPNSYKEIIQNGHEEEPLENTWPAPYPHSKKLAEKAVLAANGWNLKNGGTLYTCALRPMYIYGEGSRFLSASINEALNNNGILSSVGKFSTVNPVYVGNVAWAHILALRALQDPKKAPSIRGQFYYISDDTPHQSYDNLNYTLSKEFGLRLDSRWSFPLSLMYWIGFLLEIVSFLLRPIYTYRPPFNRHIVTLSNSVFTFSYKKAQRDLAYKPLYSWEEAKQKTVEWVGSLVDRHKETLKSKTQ

GI50 [1] [µM]	GI50 ([1]; Homo sapiens, 144 h) [µM]	IC50 [2] [nM]	IC50 (human 3β-HSD1) [nM]	Structure (SMILES)	tumor volume compared to vehicle control (C4-2 flank tumor)
2.4 ± 0.4				C[C@]12CCC(=O)C=C1CC[C@@H]1[C@@H]2CC[C@]2(C)C(c3cccnc3)=CC[C@@H]12 [D4-Abiraterone, reference compound]	
	53	83	62	O=C1CCCc2nc(-c3cc(F)c(O)c(F)c3)ccc21 [Compound 1, 2-(3,5-difluoro-4-hydroxyphenyl)-7,8-dihydroquinolin-5(6H)-one]	reduction in tumor volume
	61		2560	CC1(C)CCc2nc(-c3cc(F)c(O)c(F)c3)ccc2C1O (centres unmarked) [Compound 12]	
		68	79	O=C1c2ccc(-c3cc(F)c(O)c(F)c3)nc2CCC1(F)F [Compound 41]	
	20		376	CC1(C)CCc2nc(-c3cc(F)c(O)c(F)c3)ccc2C1(C)O (centres unmarked) [Compound 16]	
		1	84	CC1(C)CCc2nc(-c3cc(F)c(O)cc3F)ccc2C1=O [Compound 25]	
	10		79	O=C1c2ccc(-c3cc(F)c(O)c(F)c3)nc2CCC1c1ccccc1 (centres unmarked) [Compound 10, 2-(3,5-difluoro-4-hydroxyphenyl)-6-phenyl-7,8-dihydroquinolin-5(6H)-one]	
	37	7.2	64	CC1CCc2nc(-c3cc(F)c(O)c(F)c3)ccc2C1=O (centres unmarked) [Compound 7, 2-(3,5-difluoro-4-hydroxyphenyl)-6-methyl-7,8-dihydroquinolin-5(6H)-one]	
		3.8	71	CCC1(CC)CCc2nc(-c3cc(F)c(O)c(F)c3)ccc2C1=O [Compound 59]	
	59	14	45	O=C1CCCc2nc(-c3ccc(O)c(F)c3)ccc21 [Compound 2, 2-(3-fluoro-4-hydroxyphenyl)-7,8-dihydroquinolin-5(6H)-one]	
	16		105	CCC1CCc2nc(-c3cc(F)c(O)c(F)c3)ccc2C1=O (centres unmarked) [Compound 8, 2-(3,5-difluoro-4-hydroxyphenyl)-6-ethyl-7,8-dihydroquinolin-5(6H)-one]	
		0.7	89	CC[C@@]1(C)CCc2nc(-c3cc(F)c(O)c(F)c3)ccc2C1=O [Compound 55]	
	26	1.4	71	CC1(C)CCc2nc(-c3cc(F)c(O)c(F)c3)ccc2C1=O [Compound 5, 2-(3,5-difluoro-4-hydroxyphenyl)-6,6-dimethyl-7,8-dihydroquinolin-5(6H)-one]	reduction in tumor volume
	6	10	37	O=C1c2ccc(-c3cc(F)c(O)c(F)c3)nc2CCC1Cc1ccccc1 (centres unmarked) [Compound 9, 6-benzyl-2-(3,5-difluoro-4-hydroxyphenyl)-7,8-dihydroquinolin-5(6H)-one]	
			1070	Oc1c(F)cc(-c2ccc3c(n2)CCCC3OC2COC2)cc1F (centres unmarked) [Compound 77]	
			90	O=C1CCCCc2nc(-c3cc(F)c(O)c(F)c3)ccc21 [Compound 32]	
			389	CCOC1CCCc2nc(-c3cc(F)c(O)c(F)c3)ccc21 (centres unmarked) [Compound 76]	
			1860	CC1(C)CCc2nc(-c3ccc(O)c(C#N)c3)ccc2C1=O [Compound 4, 5-(6,6-dimethyl-5-oxo-5,6,7,8-tetrahydroquinolin-2-yl)-2-hydroxybenzonitrile]	
	30		331	CC1(C)CCc2nc(-c3cc(F)c(O)c(F)c3)ccc2C1(O)C1CC1 (centres unmarked) [Compound 20]	
			414	CC1(C)CCc2nc(-c3cc(F)c(O)c(F)c3)ncc2C1=O [Compound 66]	
	10	4.8	68	O=C1c2ccc(-c3cc(F)c(O)c(F)c3)nc2CCC12CC2 [Compound 11]	
